{"source": "patent US4289876A", "about": "“Antisecretory agents” (Bristol-Myers Company, priority 1980, dated 1981)", "key": {"histamine H2-receptor": {"molecular_target": "T1, histamine H2-receptor (Cavia porcellus, UniProt P47747)", "T1 construct": "The spontaneously beating right atrium was dissected free from other tissues; from tissue; host or cells: isolated spontaneously beating right atrium of male Hartley guinea pigs", "T1 sequence (P47747 whole entry)": "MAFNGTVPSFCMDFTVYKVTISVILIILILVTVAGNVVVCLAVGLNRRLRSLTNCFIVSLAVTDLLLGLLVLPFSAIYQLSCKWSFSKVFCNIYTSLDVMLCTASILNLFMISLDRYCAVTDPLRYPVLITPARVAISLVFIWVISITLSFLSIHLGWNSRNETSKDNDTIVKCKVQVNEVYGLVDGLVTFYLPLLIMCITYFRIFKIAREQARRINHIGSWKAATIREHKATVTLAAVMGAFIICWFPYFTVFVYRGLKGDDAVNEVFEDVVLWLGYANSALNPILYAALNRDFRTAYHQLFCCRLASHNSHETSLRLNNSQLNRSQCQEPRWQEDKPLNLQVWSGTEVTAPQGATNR", "assay": "Histamine H2-receptor antagonism, isolated guinea pig right atria assay (displacement of histamine concentration-response curve for atrial rate)", "description": "Subsequent investigations by Hughes and Coret, Proc. Soc. […] Black et al., Agents and Actions, 3, 133 (1973) and Brimblecombe et al., Fed. […] The present comparative studies were carried out using a modification of the procedure reported by Reinhardt et al., Agents and Actions, 4, 217 (1974).\nMale Hartley strain guinea pigs (350-450 gm.) were sacrificed by a blow on the head. The heart was excised and placed in a Petri dish of oxygenated (95% O2, 5% CO2) modified Krebs solution (g./liter: NaCl 6.6, KCl 0.35, MgSO4.7 H2 O 0.295, KH2 PO4 0.162, CaCl2 0.238, NaHCO3 2.1 and dextrose 2.09). The spontaneously beating right atrium was dissected free from other tissues and a silk thread (4-0) attached to each end. The atrium was suspended in a 20 ml. muscle chamber containing oxygenated modified Krebs solution maintained at 32° C. Atrial contractions were recorded isometrically be means of a Grass FT 0.03 force displacement transducer and recordings of contractile force and rate were made with Beckman RP Dynograph.\nA resting tension of 1 g. was applied to the atrium and it was allowed to equilibrate for 1 hour.\nConcentration-response curve displacement factors were calculated as follows: [formula] […] [formula]"}, "histamine H2-receptors": {"test_system": "histamine H2-receptors", "conditions": "Black et al., Nature 1972; cited from earlier work"}, "[1]": {"conditions": "in vivo; cited from earlier work"}, "H2-receptor": {"test_system": "H2-receptor", "conditions": "cited from earlier work"}, "peptic ulcer disease": {"test_system": "peptic ulcer disease", "conditions": "clinical evaluation, Gray et al., Lancet 1977; cited from earlier work"}, "[2]": {"conditions": "cited from earlier work"}, "[3]": {"conditions": "histamine ED50 after 30 minute incubation with test compound at 3 × 10^-5 M"}}, "data": [{"compound": "C#CCNC(=C[N+](=O)[O-])NCCSCc1ncccc1Cl", "note": "[BL-6075, 1-Nitro-2-(2-propynylamino)-2-{2-[(3-chloro-2-pyridyl)methylthio]ethylamino}ethylene]", "values": [{"measurement": "Activity Ratio Relative to Cimetidine", "setting": "histamine H2-receptor; Table 1, ratio of displacement factors, 3 × 10^-5 M", "result": 2.09}, {"measurement": "Histamine ED50 With 95% Confidence Limits", "setting": "histamine H2-receptor; [3]", "result": 20.97, "unit": "µg/mL"}]}, {"compound": "C#CCNC(=NCCSCc1ncccc1Cl)NC#N", "note": "[BL-6083, N-Cyano-N'-(2-propyn-1-yl)-N\"-{2-[(3-chloro-2-pyridyl)methylthio]ethyl}guanidine]", "values": [{"measurement": "potency/activity relative to cimetidine as a histamine H2-receptor antagonist", "setting": "histamine H2-receptor; based on displacement factors", "result": 8.19, "unit": "times"}, {"measurement": "Histamine ED50 With 95% Confidence Limits", "setting": "histamine H2-receptor; [3]", "result": 57.92, "unit": "µg/mL"}]}, {"compound": "CNC(=S)NCCCCc1cnc[nH]1", "note": "[Burimamide]", "values": [{"measurement": "mode of antagonism at histamine H2-receptors", "setting": "histamine H2-receptors", "result": "competitive antagonist"}, {"measurement": "oral absorption", "setting": "[1]", "result": "oral absorption is poor"}]}, {"compound": "CN/C(=N/CCSCc1nc[nH]c1C)NC#N", "note": "[Cimetidine]", "values": [{"measurement": "potency/effectiveness as H2 antagonist vs. earlier compound", "setting": "H2-receptor", "result": "as effective an H2 antagonist as metiamide"}, {"measurement": "efficacy in treatment of peptic ulcer disease", "setting": "peptic ulcer disease", "result": "effective therapeutic agent in the treatment of peptic ulcer disease"}, {"measurement": "Histamine ED50 With 95% Confidence Limits", "setting": "histamine H2-receptor; [3]", "result": 4.80, "unit": "µg/mL"}, {"measurement": "Concentration-Response Curve Displacement Factor", "setting": "histamine H2-receptor; test compound 3 × 10^-5 M, rightward displacement of histamine curve", "result": 25.26}]}, {"compound": "NCCc1c[nH]cn1", "note": "[Histamine]", "values": [{"measurement": "Histamine ED50 With 95% Confidence Limits", "setting": "histamine H2-receptor; histamine control before BL-6075, N=3", "result": 0.39, "unit": "µg/mL"}, {"measurement": "concentration of maximal response (atrial rate)", "setting": "histamine H2-receptor; histamine, cumulative addition", "result": 30, "unit": "µM"}]}, {"compound": "C/N=C(\\S)NCCSCc1[nH]cnc1C", "note": "[Metiamide]", "values": [{"measurement": "potency/effectiveness as H2 antagonist vs. earlier compound", "setting": "H2-receptor", "result": "more potent than burimamide"}, {"measurement": "oral activity in man", "setting": "[2]", "result": "orally active in man"}]}]}
